Among the data in patent US6395740B1, “Calcitonin mimetics” (ZymoGenetics, Inc., priority 1997, dated 2002) are EC50 values, retold here.

The assay concerns the target T1, human calcitonin receptor (Homo sapiens, UniProt P30988).
T1 construct: expressed in transfected cells; host or cells: BHK (baby hamster kidney) cells, line Hollex-2 (Hollex 1 in the general description)
T1 sequence (P30988 25-474): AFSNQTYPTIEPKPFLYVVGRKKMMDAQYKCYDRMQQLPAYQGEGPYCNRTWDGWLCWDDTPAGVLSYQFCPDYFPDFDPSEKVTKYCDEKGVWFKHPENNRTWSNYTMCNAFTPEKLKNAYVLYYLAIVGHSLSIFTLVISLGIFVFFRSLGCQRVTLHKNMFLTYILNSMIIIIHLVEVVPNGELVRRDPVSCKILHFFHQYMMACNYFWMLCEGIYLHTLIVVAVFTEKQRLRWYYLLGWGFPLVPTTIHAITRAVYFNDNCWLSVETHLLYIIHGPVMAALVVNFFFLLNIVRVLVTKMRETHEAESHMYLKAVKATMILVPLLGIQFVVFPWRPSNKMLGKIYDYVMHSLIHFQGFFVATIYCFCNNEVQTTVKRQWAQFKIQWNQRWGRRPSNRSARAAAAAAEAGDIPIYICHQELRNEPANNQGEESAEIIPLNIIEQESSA
In words: CRE-luciferase assay for calcitonin mimetic activity. It counts as cell-based. The text has this:
An alternative assay system (described in WO96/31536 which is incorporated herein in its entirety) involves selection of substances that are able to induce expression of a cyclic AMP response element (CRE)-luciferase reporter gene, as a consequence of elevated cAMP levels, in cells expressing a calcitonin receptor, but not in cells lacking calcitonin receptor expression. Such cells could include, for example, Boris/KS10-3 (expressing hamster calcitonin receptor and a CRE-luciferase reporter gene in baby hamster kidney cells (BHK 570 cells)) or Hollex 1 (expressing human calcitonin receptor and a CRE-luciferase reporter gene in BHK cells, as described in WO96/31536) or KZ10-20-48/pLJ6-4-25, which expresses the human glucagon receptor and a CRE-luciferase reporter gene in BHK cells. The human glucagon receptor is another member of the G-protein-coupled receptor family that transduces signal through adenylate cyclase-mediated elevation of cAMP.
This CRE-luciferase assay measures the end result of a multi-step signal transduction pathway triggered when a calcitonin mimetic stimulates the G-coupled calcitonin receptor. The complexity of this pathway provides multiple mechanisms for induction of luciferase transcription at points that are downstream of the calcitonin receptor, and therefore may not be calcitonin receptor-specific (e.g., forskolin's direct activation of adenylate cyclase). Any response triggered by non-specific inducers is eliminated by counter screening using the calcitonin receptor-negative cell lines described above.
Receptor-positive and -negative cell lines were maintained by serial passage in growth medium (DMEM supplemented with 10% heat-inactivated fetal calf serum (HI-FCS), 2 mM L-glutamine, 1 mM sodium pyruvate, 250 nM MTX, and 1 mg/mL G418). On the day prior to assay, cells were trypsinized, adjusted to 2×10^5 cells/mL in growth medium, plated in opaque white Dynatech Microlite microtiter tissue culture plates at 100 μL/well (2×10^4 cells), and grown overnight to confluence (37° C., 5% CO2 atmosphere)
Test substances were prepared in DMSO at 100 times the final desired assay concentration. Induction was initiated by adding 100 μL/well test substance diluted 1:100 or 1:1000 (only first round screening extracts were diluted 1:100) in assay medium (DMEM supplemented with 10% HI-FCS, 2 mM L-glutamine, 1 mM sodium pyruvate and 20 mM Hepes, pH 7.25). Controls were included on each plate: untreated wells (basal), […] forskolin, and 100 nM human calcitonin. For test substances prepared in DMSO, an equal concentration of DMSO was included in control wells (not to exceed a final assay concentration of 2% DMSO, with a preferred maximum of 1%). Plates were incubated for 3 to 8 hours (4 hours preferred) at 37° C. in an atmosphere of 5% CO2.
Following induction, luciferase activity was measured using a Promega luciferase assay kit (E1500) according to the assay kit protocol. Briefly, assay medium was removed and cells were washed once with phosphate buffered saline (PBS). After the wash, 25 μL of lysis buffer was added to each well, and the plates were incubated for 15 minutes at room temperature. Fifty microliters of Luciferase Assay Substrate (Promega, Corp.) was added to each well and the plates were transferred to a Labsystems Lumiscan microtiter luminometer. The amount of luminescence (relative light units, RLU) was determined by “Fastscan” following a 0.1 second/well integration of signal. Basal (uninduced) luciferase signal was subtracted from all measurements, and the luciferase signal induced by test samples was expressed as a percentage of the signal in the calcitonin and forskolin controls. […]

Take `COc1cc(CN2CCN(C(=O)Nc3cccc(C(F)(F)F)c3)CC2)ccc1O` [Compound 850-0231]: the EC50 fell in the range of 61.1 to 122 µM.
